The term IC50 denotes the point on the concentration scale where inhibition reaches its midpoint.

For one assay, the target named is T1, Toll-like receptor 7 (Homo sapiens, UniProt Q9NYK1).
T1 sequence (Q9NYK1 whole entry): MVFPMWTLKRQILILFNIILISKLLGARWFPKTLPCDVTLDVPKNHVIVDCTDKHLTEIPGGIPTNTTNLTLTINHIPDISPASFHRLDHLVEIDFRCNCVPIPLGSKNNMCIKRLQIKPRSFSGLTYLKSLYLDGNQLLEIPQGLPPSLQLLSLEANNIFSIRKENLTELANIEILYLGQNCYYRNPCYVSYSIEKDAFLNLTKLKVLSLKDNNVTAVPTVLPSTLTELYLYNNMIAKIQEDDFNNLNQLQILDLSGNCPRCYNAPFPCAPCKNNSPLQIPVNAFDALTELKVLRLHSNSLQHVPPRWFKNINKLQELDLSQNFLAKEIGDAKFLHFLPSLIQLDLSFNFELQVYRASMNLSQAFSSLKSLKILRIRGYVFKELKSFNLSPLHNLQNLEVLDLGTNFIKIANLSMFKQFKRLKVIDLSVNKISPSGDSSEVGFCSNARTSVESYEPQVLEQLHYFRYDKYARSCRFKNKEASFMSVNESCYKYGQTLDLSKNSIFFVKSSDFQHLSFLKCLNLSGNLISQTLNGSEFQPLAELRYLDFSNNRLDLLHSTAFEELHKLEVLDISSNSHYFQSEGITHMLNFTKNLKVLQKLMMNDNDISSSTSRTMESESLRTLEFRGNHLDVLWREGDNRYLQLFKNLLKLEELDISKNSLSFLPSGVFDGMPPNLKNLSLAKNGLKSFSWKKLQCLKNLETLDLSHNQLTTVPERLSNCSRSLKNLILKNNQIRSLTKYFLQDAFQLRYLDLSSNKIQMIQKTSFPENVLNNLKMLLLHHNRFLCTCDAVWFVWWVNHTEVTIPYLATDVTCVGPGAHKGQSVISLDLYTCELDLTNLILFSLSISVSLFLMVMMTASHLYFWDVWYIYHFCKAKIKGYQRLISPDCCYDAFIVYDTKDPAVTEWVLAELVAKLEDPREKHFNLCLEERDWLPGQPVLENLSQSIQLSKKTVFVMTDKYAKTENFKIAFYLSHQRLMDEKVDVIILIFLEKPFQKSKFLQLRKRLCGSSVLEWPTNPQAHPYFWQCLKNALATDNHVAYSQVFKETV
As to the kind of experiment: Antagonist activity at TLR7 (unknown origin).
The compound `CCCSc1nc2c(O)nnc(O)c2n1Cc1ccccc1` returned an IC50 of 110 µM. Still for that read-out and setting: to `CCCCSc1nnc2n(N)c(=O)c3ccccc3n12` belongs 185 µM; to `CCCNc1nc2c(c(=O)n(C)c(=O)n2C)n1CC(C)C`, 660 µM. Consider `COc1cc2c(N3CCN(C(=O)OC(C)(C)C)CC3)nc(N3CCN(C)CC3)nc2cc1OCc1ccccc1`, for which the IC50 amounted to 10 µM. Consider `CCSc1nc2c(N)ncnc2[nH]1`, for which the IC50 was 253 µM. Turning to `CCN(CC)CCn1cnc2c(=O)oc3ccccc3c21`, the IC50 worked out at 37 µM. `COC(=O)[C@H]1O[C@H](n2cnc3c(N)ncnc32)[C@H](O)[C@@H]1O` came in with an IC50 of over 1000 µM.

As for `CC(C)Cn1cnc2c(=O)oc3ccccc3c21`, the IC50 worked out at 23 µM. For the compound `Nc1ncnc2c1ncn2CCO`, the IC50 stood at 684 µM. As for `COc1cc2c(N3CCN(C(=O)c4ccccc4)CC3)nc(N(C)C)nc2cc1OC1CCCC1`, the IC50 was 10 µM. With `NCc1ccc(C(=O)Nc2cccc(-c3nc4cc(OCCCN5CCCC5)ccc4o3)c2)cc1`, the IC50 amounted to 66.2 µM. Take `Nc1ncnc2c1nc(Br)n2C[C@@H](O)CO`: the IC50 turned out to be 272 µM.

A further assay has as its target T1, Toll-like receptor 7. As to the kind of experiment: Antagonist activity at human TLR7 expressed in HEK-blue-HTLR7 cells assessed as inhibition of CL264-induced NFkappaB activation measured after 24 hrs by secreted alkaline phosphatase reporter assay. It counts as cell-based. For orientation: In a reporter assay the amount or activity of a reporter protein is the signal.
With `COc1ccc(CNc2nc(N3CCN(C)CC3)c3cc(OC)c(OCc4ccccc4)cc3n2)cc1`, the IC50 came out at 19.9 µM. Regarding `COc1cc2c(N(C)C)nc(NCCCN3CCN(C)CC3)nc2cc1OCCCN1CCCC1`, the IC50 is over 50 µM. In the case of `COc1ccc(CNc2nc(N3CCNCC3)c3cc(OC)c(OCc4ccccc4)cc3n2)cc1`, the IC50 turned out to be 27.8 µM.

On to `COc1ccc(CNc2nc(N3CCN(C4CCCC4)CC3)c3cc(OC)c(OCCCN4CCCC4)cc3n2)cc1`, for which the IC50 came out at 1.83 µM.

The values above are taken from ChEMBL document CHEMBL4813916, “Synthesis and characterization of new potent TLR7 antagonists based on analysis of the binding mode using biomolecular simulations” (Eur J Med Chem, 2021).
